Legend:
[1] = target: T1, full-length human PRMT1 isoform 1 (GST-tagged) (Homo sapiens, UniProt Q99873); assay: PRMT1 biochemical assay (3H-SAM Flashplate, histone H4 36-50 peptide); settings: 0.5 nM PRMT1, 30 min preincubation, 20 nM peptide
T1 construct: GST-tagged PRMT1 was eluted with 50 mM Tris, 2 mM glutathione, pH 7.8, dialysed in buffer A and concentrated; made in house; host or cells: High Five insect cells (baculovirus)
Text: (§1) S-adenosylmethionine (SAM), S-adenosylhomocysteine (SAH), bicine, Tween20, dimethylsulfoxide (DMSO), bovine skin gelatin (BSG), and Tris(2-carboxyethyl)phosphine hydrochloride solution (TCEP) were purchased from Sigma-Aldrich at the highest level of purity possible. ^3H-SAM was purchase from American Radiolabeled Chemicals with a specific activity of 80 Ci/mmol. 384-well streptavidin Flashplates were purchased from PerkinElmer.
Peptide representative of human histone H4 residues 36-50 was synthesized with an N-terminal linker-affinity tag motif and a C-terminal amide cap by 21st Century Biochemicals. The peptide was purified by high-performance liquid chromatography (HPLC) to greater than 95% purity and confirmed by liquid chromatography mass spectrometry (LC-MS). The sequence was Biot-Ahx-[…]-amide (SEQ ID NO.:1).
Full-length human PRMT1 isoform 1 (NM_001536.5) transcript clone was amplified from an HEK 293 cDNA library, incorporating flanking 5′ sequence encoding a FLAG tag ([…]) (SEQ ID NO.:2) fused directly to Met 1 of PRMT1. The amplified gene was subcloned into pFastBacI (Life Technologies) modified to encode an N-terminal GST tag and a TEV cleavage sequence
Recombinant baculovirus were generated according to Bac-to-Bac kit instructions (Life Technologies). Protein over-expression was accomplished by infecting exponentially growing High Five insect cell culture at 1.5×10^6 cell/ml with 1:100 ratio of virus. Infections were carried out at 27° C. for 48 hours, harvested by centrifugation, and stored at −80° C. for purification.
GST-tagged PRMT1 was eluted with 50 mM Tris, 2 mM glutathione, pH 7.8, dialysed in buffer A and concentrated to 1 mg/mL. The purity of recovered protein was 73%. Reference: Wasilko, D. J. and S. E. Lee: “TIPS: titerless infected-cells preservation and scale-up” Bioprocess J., 5 (2006), pp. 29-32.
General Procedure for PRMT1 Enzyme Assays on Peptide Substrates.
The assays were all performed in a buffer consisting of 20 mM Bicine (pH=7.6), 1 mM TCEP, 0.005% BSG, and 0.002% Tween 20, prepared on the day of use. Compounds in 100% DMSO (1 ul) were spotted into a polypropylene 384-well V-bottom plates (Greiner) using a Platemate Plus outfitted with a 384-channel head (Thermo Scientific). DMSO (1 ul) was added to Columns 11, 12, 23, 24, rows A-H for the maximum signal control and 1 ul of SAH, a known product and inhibitor of PRMT1, was added to columns 11, 12, 23, 24, rows I-P for the minimum signal control. A cocktail (40 ul) containing the PRMT1 enzyme was added by Multidrop Combi (Thermo-Fisher). The compounds were allowed to incubate with PRMT1 for 30 min at room temperature, then a cocktail (10 ul) containing SAM and peptide was added to initiate the reaction (final volume=51 ul). The final concentrations of the components were as follows: PRMT1 was 0.5 nM, ^3H-SAM was 200 nM, non-radiolabeled SAM was 1.5 uM, peptide was 20 nM, SAH in the minimum signal control wells was 1 mM, and the DMSO concentration was 2%. The assays were stopped by the addition of non-radiolabeled SAM (10 ul) to a final concentration of 300 uM, which dilutes the ^3H-SAM to a level where its incorporation into the peptide substrate is no longer detectable. 50 ul of the reaction in the 384-well polypropylene plate was then transferred to a 384-well Flashplate and the biotinylated peptides were allowed to bind to the streptavidin surface for at least 1 hour before being washed once with 0.1% Tween20 in a Biotek ELx405 plate washer. The plates were then read in a PerkinElmer TopCount plate reader to measure the quantity of ^3H-labeled peptide bound to the Flashplate surface, measured as disintegrations per minute (dpm) or alternatively, referred to as counts per minute (cpm).
(§2) Where dpm=disintegrations per minute, cmpd=signal in assay well, and min and max are the respective minimum and maximum signal controls. […]

[2] = target: full-length human PRMT6 (Flag- and His-tagged) (Homo sapiens, UniProt Q96LA8); assay: PRMT6 biochemical assay (3H-SAM Flashplate, histone H4 36-50 K44me1 peptide); settings: 1 nM PRMT6, 30 min preincubation, 75 nM peptide
Sequence of full-length human PRMT6 (Flag- and His-tagged) (Q96LA8 with tags, fused parts or gaps): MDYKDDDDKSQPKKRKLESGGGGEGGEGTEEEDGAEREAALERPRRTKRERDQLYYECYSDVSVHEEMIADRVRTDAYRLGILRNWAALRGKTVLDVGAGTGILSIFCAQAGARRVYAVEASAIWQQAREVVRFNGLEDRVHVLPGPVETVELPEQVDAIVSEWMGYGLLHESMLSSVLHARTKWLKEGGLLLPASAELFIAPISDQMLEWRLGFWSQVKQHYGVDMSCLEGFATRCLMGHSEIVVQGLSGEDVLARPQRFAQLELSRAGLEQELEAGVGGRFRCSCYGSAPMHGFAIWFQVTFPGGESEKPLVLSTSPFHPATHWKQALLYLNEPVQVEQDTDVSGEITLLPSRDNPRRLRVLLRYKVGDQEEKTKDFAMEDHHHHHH
Text: as §1, with “(BSG), sodium butyrate” for “(BSG),”
Peptide representative of human histone H4 residues 36-50 was synthesized with an N-terminal linker-affinity tag motif and a C-terminal amide cap by 21st Century Biochemicals. The peptide was purified by high-performance liquid chromatography (HPLC) to greater than 95% purity and confirmed by liquid chromatography mass spectrometry (LC-MS). The sequence was Biot-Ahx-[…]-amide and contained a monomethylated lysine at position 44 (SEQ ID NO.:5).
Full-length human PRMT6 (NM_018137.2) transcript clone was amplified from an HEK 293 cDNA library, incorporating a flanking 5′ sequence encoding a FLAG tag ([…]) (SEQ ID NO.:6) fused directly to Ser 2 of PRMT6 and a 3′ sequence encoding a hexa His sequence (HHHHHH) (SEQ ID NO.: 17) fused directly to Asp 375. The amplified gene was subcloned into pFastBacMam (Viva Biotech).
Recombinant baculovirus were generated according to Bac-to-Bac kit instructions (Life Technologies). […] Infections were carried out at 37° C. for 48 hours, harvested by centrifugation, and stored at −80° C. for purification.
Column was washed with 20 mM imidazole in the same buffer and Flag-PRMT6-His was eluted with 150 mM imidazole. Pooled fractions were dialysed against buffer Ni-A and further purified by anti-flag M2 affinity chromatography. Flag-PRMT6-His was eluted with 200 ug/ml FLAG peptide in the same buffer. Pooled fractions were dialysed in 20 mM Tris, 150 mM NaCl, 10% glycerol and 5 mM β-mercaptoethanol, pH 7.8. The purity of recovered protein was 95%.
General Procedure for PRMT6 Enzyme Assays on Peptide Substrates.
The assays were all performed in a buffer consisting of 20 mM Bicine (pH=7.6), 1 mM TCEP, 0.005% BSG, and 0.002% Tween 20, prepared on the day of use. Compounds in 100% DMSO (1 ul) were spotted into a polypropylene 384-well V-bottom plates (Greiner) using a Platemate Plus outfitted with a 384-channel head (Thermo Scientific). DMSO (1 ul) was added to Columns 11, 12, 23, 24, rows A-H for the maximum signal control and 1 ul of SAH, a known product and inhibitor of PRMT6, was added to columns 11, 12, 23, 24, rows I-P for the minimum signal control. A cocktail (40 ul) containing the PRMT6 enzyme was added by Multidrop Combi (Thermo-Fisher). The compounds were allowed to incubate with PRMT6 for 30 min at room temperature, then a cocktail (10 ul) containing SAM and peptide was added to initiate the reaction (final volume=51 ul). The final concentrations of the components were as follows: PRMT6 was 1 nM, ^3H-SAM was 200 nM, non-radiolabeled SAM was 250 nM, peptide was 75 nM, SAH in the minimum signal control wells was 1 mM, and the DMSO concentration was 2%. The assays were stopped by the addition of non-radiolabeled SAM (10 ul) to a final concentration of 400 uM, which dilutes the ^3H-SAM to a level where its incorporation into the peptide substrate is no longer detectable. 50 ul of the reaction in the 384-well polypropylene plate was then transferred to a 384-well Flashplate and the biotinylated peptides were allowed to bind to the streptavidin surface for at least 1 hour before being washed once with 0.1% Tween20 in a Biotek ELx405 plate washer. The plates were then read in a PerkinElmer TopCount plate reader to measure the quantity of ^3H-labeled peptide bound to the Flashplate surface, measured as disintegrations per minute (dpm) or alternatively, referred to as counts per minute (cpm).
as §2

T1 sequence (Q99873 with tags, fused parts or gaps): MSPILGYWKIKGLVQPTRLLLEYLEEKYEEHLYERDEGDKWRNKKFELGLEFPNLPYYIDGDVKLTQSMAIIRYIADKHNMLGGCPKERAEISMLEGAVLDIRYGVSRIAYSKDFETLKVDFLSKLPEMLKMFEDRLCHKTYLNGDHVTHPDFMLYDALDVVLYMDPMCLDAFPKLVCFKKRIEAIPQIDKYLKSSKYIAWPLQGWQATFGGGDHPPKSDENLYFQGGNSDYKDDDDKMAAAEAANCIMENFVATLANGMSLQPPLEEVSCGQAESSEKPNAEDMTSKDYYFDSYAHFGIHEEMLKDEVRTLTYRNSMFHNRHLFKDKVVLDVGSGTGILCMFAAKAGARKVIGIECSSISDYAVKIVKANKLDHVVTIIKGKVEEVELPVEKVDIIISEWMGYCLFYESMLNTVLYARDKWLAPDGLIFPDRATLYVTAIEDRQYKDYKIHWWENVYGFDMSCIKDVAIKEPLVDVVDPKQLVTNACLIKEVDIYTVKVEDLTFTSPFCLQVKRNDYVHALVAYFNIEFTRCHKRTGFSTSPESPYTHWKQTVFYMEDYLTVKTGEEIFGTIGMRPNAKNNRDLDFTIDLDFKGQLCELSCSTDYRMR

IC50 [1]	IC50 [2]	Compound
5850 nM	> 10000 nM	CNCCN(C)Cc1c([C@H]2CC[C@@]3(CC2)CC(C)(C)CO3)nnn1C [compound 53]
9310 nM	9920 nM	CNCCN(C)Cc1c([C@H]2CC[C@]3(CC2)CC(C)(C)CO3)nnn1C [compound 54]
7.28 nM	191 nM	CN(CCN)Cc1cn(C)nc1[C@H]1CC[C@@]2(CC1)CC(C)(C)CO2 [compound 55]
31 nM	850 nM	CN(CCN)Cc1cn(C)nc1[C@H]1CC[C@]2(CC1)CC(C)(C)CO2 [compound 56]

Reference: patent US20170291905A1, “ARGININE […] INHIBITORS AND USES THEREOF” (Epizyme, Inc., priority 2014, published 2017)
